Common to all, as to type: cell-based
Experiment [1] has as its system Escherichia coli ATCC 25922. Nature of the experiment: Suspension quantitative sterilization experiment, Escherichia coli ATCC 25922. The note with it: for Activity (killing logarithmic value): suspension method, action time 30 min. As to the method:
(§1) (5) Operation Method of Suspension Quantitative Experiment:
(§2) a. The freeze-dried strain tube was provided, opened up under an aseptic condition, and an appropriate amount of nutrient broth was added thereto with a capillary pipette. The strain was melted and dispersed by gently blowing and sucking several times. A test tube containing 5.0 mL-10.0 mL of nutrient broth medium was provided, and a small amount of bacterial suspension was dropped thereto, and incubated at 37° C. for 18 h-24 h. The bacterial suspension of the first generation culture was taken by using an inoculation loop, and streaked and inoculated onto a nutrient agar medium plate, and incubated at 37° C. for 18 h-24 h. The typical colonies from the second generation culture was picked out, inoculated onto a nutrient agar slant, and incubated at 37° C. for 18 h-24 h, obtaining the third generation culture.
(§3) b. The monoclonal strains of the third generation culture of Escherichia coli ATCC 25922, Staphylococcus aureus ATCC 29213, and Pseudomonas aeruginosa ATCC 27853 were picked out respectively and placed in 3 mL of NMB. The strains were shaken in a constant temperature culture shaker for 3 h with a rotation speed of 220 rpm, obtaining a bacterial suspension with a concentration of (1-5)×10^8 CFU/mL.
(§4) c. 0.5 mL of bacterial suspension was added to a sterile test tube, and 0.5 mL of an organic interfering substance (0.03 mol/L PBS buffer) was then added thereto. They were mixed to be uniform, and placed in a water bath at 20° C.±1° C. for 5 min. 4.0 mL of the sample to be tested prepared in step (1) was drawn with a sterile pipette and injected into the mixed solution, mixed quickly, and the time was recorded immediately.
(§5) d. After the experimental bacteria interacted with the sample to be tested for the predetermined time of 1 min, 5 min, 15 min and 30 min. 0.5 mL of the mixture of the experimental bacteria and the sample to be tested was drawn respectively and added to 4.5 mL of a neutralizer, and mixed to be uniform.
(§6) e. After 10 min of neutralization, 1.0 mL of the sample solution was drawn, and the number of viable bacteria was determined by viable count method. After the viable count method, sample solution of each pipette was inoculated onto 2 plates. When the number of colonies growing on the plate was large, 10-fold dilution was performed, and then the viable bacteria was cultured and counted.
(§7) f. At the same time, PBS buffer was used to replace the sample to be tested, and a parallel test was performed as a positive control.
(§8) g. All test samples were placed in a 37° C. incubator overnight, and the results were observed.
(§9) h. The experiment was repeated for 3 times, the concentration of viable bacteria (CFU/mL) of each group was calculated, and converted to logarithmic value (N), and then the killing logarithmic value was calculated according to the following equation:
(§10) Killing logarithmic value (KL)=the logarithmic value of the average viable bacteria concentration of the control group (No)−the logarithmic value of the viable bacteria concentration of the test group (Nx).
(§11) When calculating the killing logarithmic value, two digits after the decimal point was kept, and digital round-off was allowed.

Experiment [2] concerns Staphylococcus aureus ATCC 29213. Nature of the experiment: Suspension quantitative sterilization experiment, Staphylococcus aureus ATCC 29213. The note with it: for Activity (killing logarithmic value): suspension method, action time 30 min. As to the method: as §1, §2, §3, §4, §5, §6, §7, §8, §9, §10, §11
Experiment [3] concerns Bacillus subtilis var. niger spores ATCC 9372. Nature of the experiment: Suspension quantitative experiment, Bacillus subtilis var. niger spores. The note with it: Bacillus subtilis, ATCC9372, 0.5 h, read-out: Activity (killing logarithmic value). The procedure:
(4) Operation Method of Suspension Quantitative Experiment:
a. The Bacillus subtilis var. niger spores ATCC 9372 freeze-dried strain tube was provided, opened up under an aseptic condition, and an appropriate amount of nutrient broth was added thereto with a capillary pipette. The strain was melted and dispersed by gently blowing and sucking several times. A test tube containing 5.0 mL-10.0 mL of nutrient broth medium was provided, and a small amount of bacterial suspension was dropped thereto, and incubated at 37° C. for 18 h-24 h. The bacterial suspension of the first generation culture was taken by using an inoculation loop.
b. The monoclonal strains of the first generation culture were picked out and placed in 3 mL of NMB. The strains were shaken in a constant temperature culture shaker for 3 h with a rotation speed of 220 rpm, obtaining a bacterial suspension with a concentration of (1-5)×10^8 CFU/mL.
as §4
d. After the experimental bacteria interacted with the sample to be tested for the predetermined time. 0.5 mL of the mixture of the experimental bacteria and a disinfectant was drawn respectively and added to 4.5 mL of a neutralizer, and mixed to be uniform.
as §6
h. At the same time, PBS buffer was used to replace the sample to be tested, and a parallel test was performed as a positive control.
f. All test samples were placed in a 37° C. incubator overnight, and the results were observed.
g. The experiment was repeated for 3 times, the concentration of viable bacteria (CFU/mL) of each group was calculated, and converted to logarithmic value (N), and then the killing logarithmic value was calculated according to the following equation:
as §10, §11

The subject of experiment [4] is Pseudomonas aeruginosa ATCC 27853. Kind of experiment: Suspension quantitative sterilization experiment, Pseudomonas aeruginosa ATCC 27853. The note with it: for Activity (killing logarithmic value): suspension method, action time 30 min. As to the method:
as §1, §2, §3, §4, §5, §6, §7, §8, §9, §10, §11

The structures appear in SMILES notation.

As to `CNC(=O)C(c1ccc(O)c(O)c1)C1CCCCC1` (stereo not shown) [Example 1, 2-cyclohexyl-2-(3,4-dihydroxyphenyl)-N-methylacetamide], the “Activity (killing logarithmic value)” value worked out at 1.23 in experiment [1] (6.25 g/L), 1.16 in experiment [2] (6.25 g/L) and 1.31 in experiment [4] (6.25 g/L). In addition, in experiment [3], the log reduction at 15000 µg/mL was found to be 1.35.

Take `Cc1cc(O)cc(C)c1Cl` [4-Chloro-3,5-dimethylphenol solution, 4-chloro-3,5-dimethylphenol]: the Killing logarithmic value in experiment [1] (0.15 g/L, 1 min) is listed as 1.69; in experiment [1] (0.15 g/L, 5 min) it was 1.78; in experiment [1] (0.15 g/L, 15 min), 2.32; in experiment [1] (0.15 g/L, 30 min), 2.99; in experiment [1] (0.31 g/L, 1 min), 6.17; in experiment [1] (0.31 g/L, 5 min) it was 6.17. Further, the Killing logarithmic value in experiment [1] (0.31 g/L, 15 min) turned out to be 6.17; in experiment [1] (0.31 g/L, 30 min), 6.17; in experiment [2] (0.15 g/L, 1 min), 2.07; in experiment [2] (0.15 g/L, 5 min), 2.74; in experiment [2] (0.15 g/L, 15 min), 2.90; in experiment [2] (0.15 g/L, 30 min) it was 3.16. Further, the Killing logarithmic value in experiment [2] (0.31 g/L, 1 min) was 3.12; in experiment [2] (0.31 g/L, 5 min) it was 3.30; in experiment [2] (0.31 g/L, 15 min) it was 3.45; in experiment [2] (0.31 g/L, 30 min), 4.13; in experiment [4] (0.15 g/L, 1 min), 0.78; in experiment [4] (0.15 g/L, 5 min), 0.87. For the same compound, the Killing logarithmic value in experiment [4] (0.15 g/L, 15 min) came out at 0.94; in experiment [4] (0.15 g/L, 30 min), 0.96; in experiment [4] (0.31 g/L, 1 min), 4.77; in experiment [4] (0.31 g/L, 5 min), 4.87; in experiment [4] (0.31 g/L, 15 min), 4.91; in experiment [4] (0.31 g/L, 30 min), 4.95.

On to `Oc1ccccc1` [Phenol solution, Phenol], for which the Killing logarithmic value in experiment [1] (0.15 g/L, 1 min) came to 0.21; in experiment [1] (0.15 g/L, 5 min), 0.29; in experiment [1] (0.15 g/L, 15 min), 0.43; in experiment [1] (0.15 g/L, 30 min) it was 0.47; in experiment [1] (0.31 g/L, 1 min), 0.29; in experiment [1] (0.31 g/L, 5 min) it was 0.31. For the same compound, the Killing logarithmic value in experiment [1] (0.31 g/L, 15 min) was determined as 0.46; in experiment [1] (0.31 g/L, 30 min), 0.58; in experiment [1] (0.78 g/L, 1 min), 0.32; in experiment [1] (0.78 g/L, 5 min), 0.46; in experiment [1] (0.78 g/L, 15 min), 0.63; in experiment [1] (0.78 g/L, 30 min) it was 0.79. Further, the Killing logarithmic value was found to be 0.47 in experiment [1] (1.56 g/L, 1 min); 0.65 in experiment [1] (1.56 g/L, 5 min); 0.78 in experiment [1] (1.56 g/L, 15 min); 0.99 in experiment [1] (1.56 g/L, 30 min); 0.69 in experiment [1] (3.12 g/L, 1 min); 0.76 in experiment [1] (3.12 g/L, 5 min). Further, the Killing logarithmic value in experiment [1] (3.12 g/L, 15 min) came to 0.81; in experiment [1] (3.12 g/L, 30 min) it was 1.02; in experiment [1] (6.25 g/L, 1 min), 3.57; in experiment [1] (6.25 g/L, 5 min), 3.69; in experiment [1] (6.25 g/L, 15 min) it was 5.86; in experiment [1] (6.25 g/L, 30 min), 6.17. Also, the Killing logarithmic value was found to be 0.45 in experiment [2] (0.15 g/L, 1 min); 0.48 in experiment [2] (0.15 g/L, 5 min); 0.55 in experiment [2] (0.15 g/L, 15 min); 0.73 in experiment [2] (0.15 g/L, 30 min); 0.67 in experiment [2] (0.31 g/L, 1 min); 0.69 in experiment [2] (0.31 g/L, 5 min). Moreover, the Killing logarithmic value in experiment [2] (0.31 g/L, 15 min) turned out to be 0.73; in experiment [2] (0.31 g/L, 30 min), 0.86; in experiment [2] (0.78 g/L, 1 min), 0.79; in experiment [2] (0.78 g/L, 5 min), 0.82; in experiment [2] (0.78 g/L, 15 min), 0.89; in experiment [2] (0.78 g/L, 30 min), 0.95. For the same compound, the Killing logarithmic value came to 0.86 in experiment [2] (1.56 g/L, 1 min); 0.91 in experiment [2] (1.56 g/L, 5 min); 0.99 in experiment [2] (1.56 g/L, 15 min); 1.02 in experiment [2] (1.56 g/L, 30 min); 1.13 in experiment [2] (3.12 g/L, 1 min); 1.21 in experiment [2] (3.12 g/L, 5 min). In addition, the Killing logarithmic value in experiment [2] (3.12 g/L, 15 min) worked out at 1.23; in experiment [2] (3.12 g/L, 30 min), 1.26; in experiment [2] (6.25 g/L, 1 min), 2.52; in experiment [2] (6.25 g/L, 5 min), 2.62; in experiment [2] (6.25 g/L, 15 min) it was 2.74; in experiment [2] (6.25 g/L, 30 min), 2.99. For the same compound, the Killing logarithmic value in experiment [4] (0.15 g/L, 1 min) amounted to 0.46; in experiment [4] (0.15 g/L, 5 min), 0.51; in experiment [4] (0.15 g/L, 15 min), 0.57; in experiment [4] (0.15 g/L, 30 min) it was 0.67; in experiment [4] (0.31 g/L, 1 min), 0.76; in experiment [4] (0.31 g/L, 5 min) it was 0.79. Further, the Killing logarithmic value is given as 0.84 in experiment [4] (0.31 g/L, 15 min); 0.93 in experiment [4] (0.31 g/L, 30 min); 0.99 in experiment [4] (0.78 g/L, 1 min); 1.08 in experiment [4] (0.78 g/L, 5 min); 1.12 in experiment [4] (0.78 g/L, 15 min); 1.16 in experiment [4] (0.78 g/L, 30 min). Further, the Killing logarithmic value was 1.21 in experiment [4] (1.56 g/L, 1 min); 1.25 in experiment [4] (1.56 g/L, 5 min); 1.34 in experiment [4] (1.56 g/L, 15 min); 1.65 in experiment [4] (1.56 g/L, 30 min); 1.56 in experiment [4] (3.12 g/L, 1 min); 1.86 in experiment [4] (3.12 g/L, 5 min). The Killing logarithmic value stood at 1.92 in experiment [4] (3.12 g/L, 15 min); 1.98 in experiment [4] (3.12 g/L, 30 min); 3.07 in experiment [4] (6.25 g/L, 1 min); 3.65 in experiment [4] (6.25 g/L, 5 min); 4.55 in experiment [4] (6.25 g/L, 15 min); 5.25 in experiment [4] (6.25 g/L, 30 min).

Turning to `O=C(O)C(c1ccc(O)c(O)c1)c1ccc(O)c(O)c1` [Example 8, 2,2-di-(3,4-dihydroxyphenyl)acetic acid], the figures for the “Activity (killing logarithmic value)” value in experiment [1] (6.25 g/L), in experiment [2] (6.25 g/L) and in experiment [4] (6.25 g/L) were 1.73, 0.91 and 0.88, respectively. Besides, the log reduction at 15000 µg/mL in experiment [3] turned out to be 2.13.

In the case of `CNC(=O)C(c1ccccc1)c1ccc(F)c(F)c1` (stereo not shown) [Example 3, 2-(3,4-difluorophenyl)-N-methyl-2-phenylacetamide], the results for the “Activity (killing logarithmic value)” value in experiment [1] (6.25 g/L), in experiment [2] (6.25 g/L) and in experiment [4] (6.25 g/L) were 1.14, 1.54 and 1.56, respectively. The log reduction at 15000 µg/mL in experiment [3] is 2.07.

With `CC(C)NC(=O)C(c1ccccc1)c1ccc(O)cc1` (stereo not shown) [Example 2, 2-(4-hydroxyphenyl)-N-isopropyl-2-phenylacetamide], the “Activity (killing logarithmic value)” value in experiment [1] (6.25 g/L) was found to be 0.97; in experiment [2] (6.25 g/L), 0.89; in experiment [4] (6.25 g/L) it was 0.99. Further, the log reduction at 15000 µg/mL in experiment [3] stood at 0.98.

The values above are taken from patent US20220279787A1, “a-Substituted Phenyl Structure-Containing Compound, Preparation Method Thereof, and Disinfectant” (Henan Ruibo Pharmaceutical Technology Co. Ltd., priority 2019, published 2022).
